Test results reported in ChEMBL document CHEMBL1201862, “PubChem BioAssay data set” (2004).
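A five-concentration, 48-hour dose response in 96-well plates underlies each endpoint, interpolated linearly between surrounding concentrations. GI50 marks 50% less growth.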 Calls of active or inactive are those of the source. Rule as the data show it: active = GI50 up to about 1.1 µM and inactive = higher.

Assays:
Assay in all cases: NCI-60 cell line screen, 48 h
COLO 205 = system: COLO 205
UO-31 = system: UO-31
OVCAR-3 = system: OVCAR-3
SF-295 = system: SF-295
SF-268 = system: SF-268
IGROV-1 = system: IGROV-1
NCI-H522 = system: NCI-H522
HCT-116 = system: HCT-116
KM12 = system: KM12
HCC 2998 = system: HCC 2998
M14 = system: M14
SN12C = system: SN12C
RPMI-8226 = system: RPMI-8226
Malme-3M = system: Malme-3M
HOP-92 = system: HOP-92

| Compound | GI50 (COLO 205) | GI50 (UO-31) | GI50 (OVCAR-3) | GI50 (SF-295) | GI50 (SF-268) | GI50 (IGROV-1) | GI50 (NCI-H522) | GI50 (HCT-116) | GI50 (KM12) | GI50 (HCC 2998) | GI50 (M14) | GI50 (SN12C) | GI50 (RPMI-8226) | GI50 (Malme-3M) | GI50 (HOP-92) |
| --- | --- | --- | --- | --- | --- | --- | --- | --- | --- | --- | --- | --- | --- | --- | --- |
| O=C(CC(=O)Nc1ccccc1O)Nc1ccccc1O | 18.5 µM (inactive) | 12.1 µM (inactive) | 14.9 µM (inactive) | 39 µM (inactive) | 26.9 µM (inactive) | 37.4 µM (inactive) | 7.48 µM (inactive) | 13.2 µM (inactive) | 10.8 µM (inactive) | 24.7 µM (inactive) | 16.1 µM (inactive) | 16.3 µM (inactive) | 5.13 µM (inactive) | 22.8 µM (inactive) | > 100 µM (inactive) |
| O=[N+]([O-])c1ccccc1C1N2CCCCC2[C@@H]2c3[nH]c4ccccc4c3CCN12 (some centres undefined) | 13.2 µM (inactive) | 11.3 µM (inactive) | 19.8 µM (inactive) | 13.8 µM (inactive) | 11.6 µM (inactive) | 15.6 µM (inactive) | – | – | – | – | 13.7 µM (inactive) | 13.6 µM (inactive) | 10.9 µM (inactive) | – | 15.1 µM (inactive) |
| CC(=O)c1ccc(NC(=O)/C(Cc2ccccn2)=N/NC(=O)C[N+](C)(C)C)cc1 | > 100 µM (inactive) | > 100 µM (inactive) | > 100 µM (inactive) | > 100 µM (inactive) | > 100 µM (inactive) | > 100 µM (inactive) | > 100 µM (inactive) | > 100 µM (inactive) | > 100 µM (inactive) | > 100 µM (inactive) | > 100 µM (inactive) | > 100 µM (inactive) | > 100 µM (inactive) | > 100 µM (inactive) | – |
| O=C(Cc1nc2ccccc2s1)Nc1cccc(C(F)(F)F)c1 | 17 µM (inactive) | 14.5 µM (inactive) | 17.6 µM (inactive) | 16.2 µM (inactive) | 14.8 µM (inactive) | 13 µM (inactive) | 14.1 µM (inactive) | – | 15.2 µM (inactive) | 15.6 µM (inactive) | 15.6 µM (inactive) | 16.1 µM (inactive) | 7.5 µM (inactive) | 16.6 µM (inactive) | – |
| FC(F)(F)P1C2C=CC(CC2)C1(F)F (centres undefined) | > 100 µM (inactive) | > 100 µM (inactive) | – | > 100 µM (inactive) | > 100 µM (inactive) | > 100 µM (inactive) | > 100 µM (inactive) | > 100 µM (inactive) | > 100 µM (inactive) | > 100 µM (inactive) | > 100 µM (inactive) | > 100 µM (inactive) | > 100 µM (inactive) | > 100 µM (inactive) | – |
| CCCCOCN/C(N)=N/C#N | 38.3 µM (inactive) | > 100 µM (inactive) | > 100 µM (inactive) | > 100 µM (inactive) | > 100 µM (inactive) | > 100 µM (inactive) | > 100 µM (inactive) | > 100 µM (inactive) | 71.4 µM (inactive) | > 100 µM (inactive) | > 100 µM (inactive) | > 100 µM (inactive) | > 100 µM (inactive) | > 100 µM (inactive) | > 100 µM (inactive) |
| NC(=O)C#CC#CC#CCO | 1.23 µM (inactive) | 1.95 µM (inactive) | 1.9 µM (inactive) | 3.94 µM (inactive) | 2.21 µM (inactive) | 2.72 µM (inactive) | 0.15 µM (active) | 1.28 µM (inactive) | 3.31 µM (inactive) | 1.7 µM (inactive) | 1.98 µM (inactive) | 1.96 µM (inactive) | 2.05 µM (inactive) | 1.96 µM (inactive) | 2.28 µM (inactive) |
| COC(=O)CCC(=O)C(C#N)c1ccc(Cl)cc1Cl (centres undefined) | – | > 100 µM (inactive) | > 100 µM (inactive) | > 100 µM (inactive) | > 100 µM (inactive) | > 100 µM (inactive) | > 100 µM (inactive) | > 100 µM (inactive) | > 100 µM (inactive) | – | > 100 µM (inactive) | > 100 µM (inactive) | > 100 µM (inactive) | > 100 µM (inactive) | > 100 µM (inactive) |
| CCOC(=O)NC(=O)c1cn(CCCOC(=O)CCCCCCCCCCC(=O)OCCCn2cc(C(=O)NC(=O)OCC)c(=O)[nH]c2=O)c(=O)[nH]c1=O | > 100 µM (inactive) | > 100 µM (inactive) | > 100 µM (inactive) | > 100 µM (inactive) | > 100 µM (inactive) | > 100 µM (inactive) | – | > 100 µM (inactive) | > 100 µM (inactive) | > 100 µM (inactive) | > 100 µM (inactive) | > 100 µM (inactive) | > 100 µM (inactive) | > 100 µM (inactive) | > 100 µM (inactive) |
| CC(C)OP(=O)(OC(C)C)/C(N)=N/Nc1ccc([N+](=O)[O-])cc1 | > 100 µM (inactive) | 61.8 µM (inactive) | > 100 µM (inactive) | – | > 100 µM (inactive) | – | 68.7 µM (inactive) | 86.3 µM (inactive) | > 100 µM (inactive) | > 100 µM (inactive) | > 100 µM (inactive) | > 100 µM (inactive) | > 100 µM (inactive) | > 100 µM (inactive) | 46.7 µM (inactive) |
| CCc1cccc(C(C)C)c1NC(=O)/C(=N\NC(N)=O)C(C(=O)OC)c1cnc2ccccc2n1 (centres undefined) | 20.9 µM (inactive) | > 100 µM (inactive) | 20.8 µM (inactive) | 58.5 µM (inactive) | > 100 µM (inactive) | 40.7 µM (inactive) | 24.9 µM (inactive) | 24.2 µM (inactive) | 41.6 µM (inactive) | 40.6 µM (inactive) | 39.6 µM (inactive) | 35 µM (inactive) | – | 34.4 µM (inactive) | – |
| CN(C)/C=N\c1nc(=O)n(C2CCC(CO)O2)cc1F (centres undefined) | > 100 µM (inactive) | > 100 µM (inactive) | > 100 µM (inactive) | > 100 µM (inactive) | > 100 µM (inactive) | – | > 100 µM (inactive) | – | > 100 µM (inactive) | 96.6 µM (inactive) | > 100 µM (inactive) | > 100 µM (inactive) | > 100 µM (inactive) | > 100 µM (inactive) | > 100 µM (inactive) |
| O=C(/C=C(\O)C(=O)O)/C=C(\O)c1ccccc1 | > 4.65 µM (inactive) | – | > 4.65 µM (inactive) | > 4.65 µM (inactive) | > 4.65 µM (inactive) | > 4.65 µM (inactive) | – | > 4.65 µM (inactive) | – | – | > 100 µM (inactive) | > 4.65 µM (inactive) | – | – | – |
| CNc1ccc([N+](=O)[O-])c2c(NCCCN(C)C)ccnc12 | > 100 µM (inactive) | > 100 µM (inactive) | > 100 µM (inactive) | > 100 µM (inactive) | > 100 µM (inactive) | > 100 µM (inactive) | > 100 µM (inactive) | > 100 µM (inactive) | > 100 µM (inactive) | > 100 µM (inactive) | > 100 µM (inactive) | > 100 µM (inactive) | > 100 µM (inactive) | > 100 µM (inactive) | – |
| c1ccc(C2N3CCCCC3[C@@H]3c4[nH]c5ccccc5c4CCN23)nc1 (some centres undefined) | – | > 100 µM (inactive) | > 100 µM (inactive) | > 100 µM (inactive) | 47.9 µM (inactive) | > 100 µM (inactive) | – | > 100 µM (inactive) | – | – | > 100 µM (inactive) | > 100 µM (inactive) | > 100 µM (inactive) | – | > 100 µM (inactive) |
| CCCCCCCCCC1CC(=O)OC2=C1C(=O)CCC2 (centres undefined) | > 100 µM (inactive) | > 100 µM (inactive) | > 100 µM (inactive) | > 100 µM (inactive) | > 100 µM (inactive) | > 100 µM (inactive) | > 100 µM (inactive) | > 100 µM (inactive) | > 100 µM (inactive) | > 100 µM (inactive) | > 100 µM (inactive) | > 100 µM (inactive) | > 100 µM (inactive) | > 100 µM (inactive) | > 100 µM (inactive) |
| Cc1nn(C)c(=O)c2nn(-c3ccccc3)c(C)c12 | > 100 µM (inactive) | > 100 µM (inactive) | > 100 µM (inactive) | > 100 µM (inactive) | > 100 µM (inactive) | > 100 µM (inactive) | > 100 µM (inactive) | > 100 µM (inactive) | > 100 µM (inactive) | > 100 µM (inactive) | > 100 µM (inactive) | > 100 µM (inactive) | > 100 µM (inactive) | > 100 µM (inactive) | – |
| Clc1ccc(Cc2nc3ccccc3s2)c(Cl)c1 | 17 µM (inactive) | 16.4 µM (inactive) | 18.6 µM (inactive) | 16.8 µM (inactive) | 15.7 µM (inactive) | 14.8 µM (inactive) | 15.7 µM (inactive) | – | 16.6 µM (inactive) | 18.6 µM (inactive) | 16.4 µM (inactive) | 16.5 µM (inactive) | 17.7 µM (inactive) | 16.9 µM (inactive) | – |
| O=[N+]([O-])c1cccc(C(O)/C(=N/Nc2ccccc2)C2Nc3ccc([N+](=O)[O-])cc3N=C2O)c1 (centres undefined) | 61.1 µM (inactive) | 27.5 µM (inactive) | 66.7 µM (inactive) | 60.4 µM (inactive) | 93.5 µM (inactive) | 38.7 µM (inactive) | 19.7 µM (inactive) | > 100 µM (inactive) | 27.8 µM (inactive) | 33.4 µM (inactive) | 42.1 µM (inactive) | > 100 µM (inactive) | 43 µM (inactive) | 95.9 µM (inactive) | > 100 µM (inactive) |
| O=C(c1ccccc1)c1ccc2cccc(O)c2n1 | 37.5 µM (inactive) | 34.4 µM (inactive) | 50.8 µM (inactive) | 18.7 µM (inactive) | 27.5 µM (inactive) | 93.1 µM (inactive) | 8.38 µM (inactive) | 6.14 µM (inactive) | 74.5 µM (inactive) | 40.1 µM (inactive) | 13.8 µM (inactive) | 38.8 µM (inactive) | 10.6 µM (inactive) | 36.1 µM (inactive) | – |
